According to PubChem BioAssay AID190 (DTP/NCI, 2004):
“And” between values parts separate entries of the source, which are not always exact repeats. Identical values can stand only once. Inconclusive results and toxic doses are left out.

Tested on: AKR/Lw mice, AKR lymphoma ip, median survival T/C
Test: NCI In Vivo Anticancer Drug Screen. Data for tumor model Lymphoma AKR (Transplanted) (intraperitoneal) in AKR/Lw mice
Conditions: endpoint: median survival time, higher = longer survival
Method: The antitumor activity of compounds was measured in mice bearing transplantable tumors. Survival or tumor size were measured and the results are expressed as the measurement made in the treated group (T) divided by the measurement made in the vehicle treated control group (C). The tumor model used in this assay is Lymphoma AKR (Transplanted) (intraperitoneal) in AKR/Lw mice

[1] = dose: 25.0 mg/kg/injection, schedule: Q01DX001 (ip), vehicle: saline
[2] = dose: 50.0 mg/kg/injection, schedule: Q01DX001 (ip), vehicle: saline

SMILES: C1CC2CCC[N+]3=C2C(C1)CCC3 (stereo unspecified)
- T/C (dose: 12.5 mg/kg/injection, schedule: Q01DX001 (ip), vehicle: saline): 100 % of control
- T/C [1]: 100 % of control
- T/C [2]: 108 % of control

SMILES: C1=CC2(OCCO2)C2CC=CC3(OCCO3)C2C1 (stereo unspecified)
- T/C (dose: 100.0 mg/kg/injection, schedule: Q01DX001 (ip), vehicle: saline): 104 % of control
- T/C (dose: 200.0 mg/kg/injection, schedule: Q01DX001 (ip), vehicle: saline): 97 % of control
- T/C (dose: 400.0 mg/kg/injection, schedule: Q01DX001 (ip), vehicle: saline): 95 % of control

SMILES: CC(CN1CC(=O)NC(=O)C1)N1CC(=O)NC(=O)C1 (stereo unspecified)
- T/C (dose: 0.5 mg/kg/injection, schedule: Q01DX009 (ip), vehicle: saline): 103 % of control
- T/C (dose: 1.6 mg/kg/injection, schedule: Q01DX009 (ip), vehicle: saline): 116 % of control
- T/C (dose: 2.0 mg/kg/injection, schedule: Q01DX009 (ip), vehicle: saline): 109 % of control
- T/C (dose: 2.5 mg/kg/injection, schedule: Q01DX009 (ip), vehicle: saline): 90 % of control
- T/C (dose: 3.1 mg/kg/injection, schedule: Q01DX009 (ip), vehicle: saline): 110 % of control and 113 % of control
- T/C (dose: 4.0 mg/kg/injection, schedule: Q01DX009 (ip), vehicle: saline): 181 % of control
- T/C (dose: 5.0 mg/kg/injection, schedule: Q01DX009 (ip), vehicle: saline): 106 % of control
- T/C (dose: 10.0 mg/kg/injection, schedule: Q01DX009 (ip), vehicle: saline): 120 % of control
- T/C (dose: 12.5 mg/kg/injection, schedule: Q04DX003 (ip), vehicle: saline): 88 % of control and 90 % of control
- T/C (dose: 20.0 mg/kg/injection, schedule: Q01DX009 (ip), vehicle: saline): 150 % of control
- T/C [1]: 94 % of control
- T/C (dose: 25.0 mg/kg/injection, schedule: Q04DX003 (ip), vehicle: saline): 105 % of control and 107 % of control
- T/C (dose: 30.0 mg/kg/injection, schedule: Q01DX009 (ip), vehicle: saline): 152 % of control
- T/C (dose: 35.0 mg/kg/injection, schedule: Q01DX009 (ip), vehicle: saline): 152 % of control
- T/C [2]: 97 % of control and 106 % of control
- T/C (dose: 50.0 mg/kg/injection, schedule: Q04DX003 (ip), vehicle: saline): 92 % of control and 100 % of control
- T/C (dose: 75.0 mg/kg/injection, schedule: Q04DX003 (ip), vehicle: saline): 94 % of control
- T/C (dose: 150.0 mg/kg/injection, schedule: Q01DX001 (ip), vehicle: water): 108 % of control
- T/C (dose: 150.0 mg/kg/injection, schedule: Q04DX003 (ip), vehicle: saline): 123 % of control
- T/C (dose: 200.0 mg/kg/injection, schedule: Q01DX009 (ip), vehicle: saline): 108 % of control
- T/C (dose: 300.0 mg/kg/injection, schedule: Q01DX009 (ip), vehicle: saline): 106 % of control
- T/C (dose: 300.0 mg/kg/injection, schedule: Q04DX003 (ip), vehicle: saline): 100 % of control
- T/C (dose: 400.0 mg/kg/injection, schedule: Q01DX009 (ip), vehicle: saline): 100 % of control
- T/C (dose: 600.0 mg/kg/injection, schedule: Q01DX001 (ip), vehicle: water): 111 % of control

SMILES: C[N+](C)(C)Cc1ccccc1
- T/C [1]: 91 % of control

SMILES: CC(C)c1c[nH]c(=O)[nH]c1=O
- T/C (dose: 25.0 mg/kg/injection, schedule: Q04DX003 (ip), vehicle: Klucel (hydroxypropylcellulose) (HPC)): 97 % of control
- T/C (dose: 50.0 mg/kg/injection, schedule: Q04DX003 (ip), vehicle: Klucel (hydroxypropylcellulose) (HPC)): 94 % of control
- T/C (dose: 100.0 mg/kg/injection, schedule: Q04DX003 (ip), vehicle: Klucel (hydroxypropylcellulose) (HPC)): 94 % of control
- T/C (dose: 200.0 mg/kg/injection, schedule: Q01DX001 (ip), vehicle: Klucel (hydroxypropylcellulose) (HPC)): 86 % of control
- T/C (dose: 400.0 mg/kg/injection, schedule: Q01DX001 (ip), vehicle: Klucel (hydroxypropylcellulose) (HPC)): 92 % of control
